Assay results from patent US11753373B2, “Protease inhibitors as antivirals” (priority 2021, dated 2023).
pEC50, pIC50: −log10 of the molar value. Read-outs that look alike come from different tables or passages of the source.

How the values were obtained:
[1] = molecular target: SARS-CoV-2 M^pro (3CL protease) (Severe acute respiratory syndrome coronavirus 2 (2019-nCoV) (SARS-CoV-2), UniProt P0DTD1); assay type: biochemical; details: read-out: SARS-CoV-2M^pro inhibition IC50
[2] = assay type: in vitro ADME; details: extraction ratio, compound at 1 uM; for Liver Microsomal Stability (ER) SD rat: SD rat liver microsomes 0.5 mg/mL; for Liver Microsomal Stability (ER) Beagle dog: beagle dog liver microsomes 0.5 mg/mL; for Liver Microsomal Stability (ER) Mouse: mouse liver microsomes 0.5 mg/mL; for Liver Microsomal Stability (ER) Monkey: monkey liver microsomes 0.5 mg/mL
[3] = assay type: in vitro ADME, Human; details: extraction ratio; for Liver Microsomal Stability (ER) Human: compound at 1 uM, human liver microsomes 0.5 mg/mL; for Liver Microsomal Stability (ER) Human, at 0.1 uM: compound at 0.1 uM, human liver microsomes
in vivo [4] = details: female, Balb/c, mouse, po, 40 mg/kg
Description: (§1) Pharmacokinetics of test compounds was evaluated following an oral administration of a single dose (at 40 mg/kg) to female Balb/c mice.
(§2) Procedure: Test compounds were administered to Balb/c mice (n=3 per sex per time point) by a single oral gavage. The target dose level for oral administration was 40 mg/kg. Blood samples were collected at pre-dose, and at 0.083, 0.25, 0.50, 1, 2, 4, 6, 8, and 12 hours post-dose. Concentrations of test compound were determined by an LC-MS/MS. Non-compartmental Pharmacokinetic parameters of test compounds were analyzed using Phoenix WinNonlin 8.3.
(§3) Animal Dosing: All animals were fasted overnight through approximately 4 hours post-dose. Tap water was provided to mice ad Libitum. The mice were dosed orally at 10.0 ml/kg. The formulation volume of the test compound administered to each animal was calculated based on the body weight measured on the day of dosing.
(§4) Sample Collection and Analysis: Approximately 0.20 mL of blood was collected via orbital sinus vein puncture into EDTA-K2 tubes. Plasma samples were harvested by centrifugation and stored at −80° C. until analysis. The analytical method for test compound involved protein precipitation by adding acetonitrile containing 1% FA and internal standard (A-1-a synthesized in house or Tolbutamide purchased from Sigma), and final analysis by LC-MS/MS. A standard curve was prepared using mouse plasma for the test compound. The calibration curve was linear over a concentration range of 1.0 to 1000 ng/mL.
(§5) Pharmacokinetic and Statistic Analysis: The reported plasma concentrations of test compounds were used to determine pharmacokinetic parameters, using a non-compartmental model for data analysis (Phoenix WinNonlin 8.3). The common pharmacokinetic parameters were calculated, whenever possible, from the plasma concentration-versus-time data. Nominal doses and sampling times were used, except where deviations were noted. […] BQL after Tmax would not participate in calculation of PK parameters.

[5] = mouse oral PK, female Balb/c, 40 mg/kg single dose; for AUC0-t / Cmax / Tmax / t1/2: plasma
Description: as §1, §2, §3, §4, §5

SARS-CoV-2 = experiment: Anti-viral in vitro PRNT assay in Vero E6 cells; assay type: cell-based; details: Vero E6 cells, 1000 pfu, 3 days, plaque reduction; for pEC50: read-out: anti-SARS-CoV2 (PRNT) in Vero E6 EC50
in vivo [6] = details: female, beagle, dog, po, 40 mg/kg
Description: Pharmacokinetics of test compounds was evaluated following an oral administration of a single dose (at 40 mg/kg) to female Beagle dogs.
Procedure: Test compounds were orally administered to beagle dogs (single dose). The target dose level for oral administration was 40 mg/kg. Blood samples were collected at pre-dose, and at 0.083, 0.25, 0.50, 1, 2, 4, 6, 8, and 24 hours post-dose. Concentrations of test compound were determined by an LC-MS/MS. Non-compartmental Pharmacokinetic parameters of test compounds were analyzed using Phoenix WinNonlin 8.3.
Animal Dosing: All animals were fasted ˜17-19 h prior to dosing and fed approximately 4 hours after dosing. […] The dogs were dosed at 10.0 ml/kg. The formulation volume of the test compound administered to each animal was calculated based on the body weight measured on the day of dosing.
Sample Collection and Analysis: Approximately 1 mL of blood was collected by jugular vein puncture into tubes containing EDTA-K2 anticoagulant. Plasma samples were harvested by centrifugation (2000 g for 10 minutes at 4° C. within 2 hours after collection) and stored at −80° C. until analysis. The analytical method for test compound involved protein precipitation by adding acetonitrile containing 1% FA and internal standard (A-1-a synthesized in house or Tolbutamide purchased from Sigma), and final analysis by LC-MS/MS. A standard curve was prepared using dog plasma for the test article. The calibration curve was linear over a concentration range of 1.0 to 1000 ng/mL.
as §5

[7] = wild type Mpro 17 nM, substrate 40 uM
[8] = Severe acute respiratory syndrome coronavirus 2, Vero C1008, 72 h

Row | Compound | Liver Microsomal Stability (ER) SD rat [2] | Liver Microsomal Stability (ER) Beagle dog [2] | Liver Microsomal Stability (ER) Mouse [2] | Liver Microsomal Stability (ER) Human [3] | pIC50 [1, 7] | AUC0-t [5] [ng·h/mL] | Cmax [5] [ng/mL] | Tmax [5] [h] | t1/2 [5] [h] | pEC50 (SARS-CoV-2) | Liver Microsomal Stability (ER) Monkey [2] | also measured
1 | CC(C)C[C@H](NC(=O)c1cc2c(F)cccc2[nH]1)C(=O)N[C@@H](C[C@@H]1CCNC1=O)C(=O)CO [Compound A-3-e, (2S)-2-[(4-fluoro-1H-indol-2-yl)formamido]-N-[(2S)-4-hydroxy-3-oxo-1-[(3S)-2-oxopyrrolidin-3-yl]butan-2-yl]-4-methylpentanamide] | 0.17 | 0.05 | 0.23 | 0.11 | – | – | – | – | – | – | – | pIC50 [1]: 8.29; AUC0-t (in vivo [4]): 261 ng·h/mL; Cmax (in vivo [4]): 131 ng/mL; Tmax (in vivo [4]): 0.25 h; half-life (in vivo [4]): 1.25 h
2 | CC(C)(C)[C@H](NC(=O)C(F)(F)F)C(=O)N1C[C@H]2[C@@H]([C@H]1C(=O)N[C@H](C#N)C[C@@H]1CCCNC1=O)C2(C)C [Compound D-3-a] | 0.09 | 0.16 | 0.66 | 0.38 | 8.23 | 5590 | 7070 | 0.25 | 0.706 | 5.90 | – | –
3 | CC(C)C[C@H](NC(=O)C(F)F)C(=O)N1C[C@H]2[C@@H]([C@H]1C(=O)N[C@H](C=O)C[C@@H]1CCNC1=O)C2(C)C [Compound H-1-a] | 0.05 | 0.10 | 0.24 | 0.08 | 8.20 | – | – | – | – | – | – | anti-SARS-CoV2 (PRNT) in Vero E6 EC50 (μM) (SARS-CoV-2): inactive
4 | CC(C)C[C@H](NC(=O)c1cc2ccccc2[nH]1)C(=O)N[C@@H](C[C@@H]1CCNC1=O)C(=O)CO [Compound A-1-h] | 0.13 | 0.03 | 0.23 | 0.07 | 7.99 | – | – | – | – | – | – | anti-SARS-CoV2 (PRNT) in Vero E6 EC50 (μM) (SARS-CoV-2): Inactive
5 | CC(C)(C)C(=O)N[C@H](C(=O)N1C[C@H]2[C@@H]([C@H]1C(=O)N[C@H](C#N)C[C@@H]1CCNC1=O)C2(C)C)C(C)(C)C [Compound H-2-a] | 0.15 | 0.52 | 0.83 | 0.53 | 7.39 | – | – | – | – | – | – | anti-SARS-CoV2 (PRNT) in Vero E6 EC50 (μM) (SARS-CoV-2): Inactive
6 | CC(C)C[C@H](NC(=O)[C@@H](NC(=O)C(F)F)[C@@H](C)OC(C)(C)C)C(=O)N[C@H](C#N)C[C@@H]1CCNC1=O [Compound H-3-a] | 0.21 | 0.06 | 0.68 | 0.35 | 8.09 | – | – | – | – | 5.66 | – | –
7 | CC(C)C[C@H](NC(=O)c1cc2ccccc2[nH]1)C(=O)N1C[C@H]2[C@@H]([C@H]1C(=O)N[C@H](C#N)C(C)(C)C)C2(C)C [Compound G-3-b] | 0.20 | 0.32 | 0.55 | 0.28 | < 5.00 | 383.7 | 169 | 2 | 0.773 | – | – | –
8 | CC(C)C[C@H](NC(=O)C1CC1)C(=O)N1C[C@H]2[C@@H]([C@H]1C(=O)N[C@H](C#N)C[C@@H]1CCNC1=O)C2(C)C [Compound H-1-f] | 0.04 | 0.01 | 0.27 | 0.03 | 7.54 | 72.0 | 32.1 | 1.0 | 1.43 | – | – | anti-SARS-CoV2 (PRNT) in Vero E6 EC50 (μM) (SARS-CoV-2): Inactive
9 | CC(C)C[C@H](CC(=O)[C@@H](NC(=O)OCc1ccccc1)[C@@H](C)OC(C)(C)C)C(=O)N[C@H](C=O)C[C@@H]1CCNC1=O [Compound C-1-b] | 0.23 | 0.48 | 0.45 | 0.66 | 8.89 | 128.4 | 46.1 | 2 | 0.704 | 5.99 | 0.51 | F % (bioavailability) [5]: 2.9%
10 | Cc1cccc2[nH]c(C(=O)N[C@@H](CC(C)C)C(=O)N[C@H](C=O)C[C@@H]3CCNC3=O)cc12 [Compound A-4-a, 4-methyl-N—((S)-4-methyl-1-oxo-1-(((S)-1-oxo-3-((S)-2-oxopyrrolidin-3-yl)propan-2-yl)amino)pentan-2-yl)-1H-indole-2-carboxamide] | 0.06 | 0.22 | 0.13 | 0.21 | – | – | – | – | – | – | 0.098 | pIC50 [1]: 8.62; pEC50 (SARS-CoV-2; [8]): 5.95; half-life (in vivo [4]): 1 h
11 | CC(C)C[C@H](NC(=O)c1cc2c(F)cccc2[nH]1)C(=O)N[C@H](C#N)C[C@@H]1CCNC1=O [Compound A-3-a, (2S)—N-[(1S)-1-cyano-2-[(3S)-2-oxopyrrolidin-3-yl]ethyl]-2-[(4-fluoro-1H-indol-2-yl)-formamido]-4-methylpentanamide] | 0.21 | 0.03 | 0.07 | 0.02 | – | – | – | – | – | – | 0.27 | pEC50 (SARS-CoV-2; [8]): 5.29; AUC0-t (in vivo [4]): 15500 ng·h/mL; Cmax (in vivo [4]): 8050 ng/mL; Tmax (in vivo [4]): 1 h; half-life (in vivo [4]): 0.976 h
12 | CC(C)C[C@H](NC(=O)c1cc2ccccc2[nH]1)C(=O)N[C@H](C=O)C[C@@H]1CCNC1=O [Compound A-1-c, N—((S)-4-methyl-1-oxo-1-(((S)-1-oxo-3-((S)-2-oxopyrrolidin-3-yl)propan-2-yl)amino)pentan-2-yl)-1H-indole-2-carboxamide] | 0.05 | 0.09 | 0.04 | 0.12, | – | – | – | – | – | – | 0.14 | pEC50 (SARS-CoV-2; [8]): 6.52; AUC0-t (in vivo [6]): 36700 ng·h/mL; Cmax (in vivo [6]): 13800 ng/mL; Tmax (in vivo [6]): 0.833 h; bioavailability (in vivo [6]): 31%; half-life (in vivo [6]): 4.84 h; Liver Microsomal Stability (ER) Human, at 0.1 uM [3]: 0.45(0.1 uM)*; AUC0-t (in vivo [4]): 2170 ng·h/mL; Cmax (in vivo [4]): 734 ng/mL; Tmax (in vivo [4]): 3 h; bioavailability (in vivo [4]): 8%; half-life (in vivo [4]): 1.07 h
13 | Cc1cccc2[nH]c(C(=O)N[C@@H](CC(C)C)C(=O)N[C@@H](C[C@@H]3CCNC3=O)C(=O)CO)cc12 [Compound A-4-d] | 0.19 | 0.08 | 0.44 | 0.18 | 8.38 | 120 | 52 | 4 | 2.14 | 5.69 | – | –
14 | CC(C)C[C@H](NC(=O)c1cc2ccccc2[nH]1)C(=O)N[C@@H](C[C@@H]1CCNC1=O)C(=O)CCl [Compound A-1-g, (2S)—N-[(2S)-4-chloro-3-oxo-1-[(3S)-2-oxopyrrolidin-3-yl]butan-2-yl]-2-[(1H-indol-2-yl)formamido]-4-methylpentanamide] | 0.77 | 0.71 | 0.53 | 0.80 | – | – | – | – | – | – | 0.68 | pIC50 [1]: 7.33; pEC50 (SARS-CoV-2; [8]): 4.74
15 | CC(C)(C)[C@H](NC(=O)C(F)(F)F)C(=O)N1C[C@H]2[C@@H]([C@H]1C(=O)N[C@H](C=O)C[C@@H]1CCNC1=O)C2(C)C [Compound D-1-f] | −0.02 | 0.01 | −0.02 | 0.093, | 8.97 | 1402 | 839 | 1 | 1.37 | 5.12 | 0.13 | Liver Microsomal Stability (ER) Human, at 0.1 uM [3]: 0.22(0.1 uM)*
16 | CC(C)C[C@H](NC(=O)C(C)(C)C)C(=O)N1C[C@H]2[C@@H]([C@H]1C(=O)N[C@H](C#N)C[C@@H]1CCNC1=O)C2(C)C [Compound H-1-d] | 0.09 | 0.16 | 0.63 | 0.26 | 7.40 | – | – | – | – | – | – | anti-SARS-CoV2 (PRNT) in Vero E6 EC50 (μM) (SARS-CoV-2): Inactive
17 | CC(C)C[C@H](NC(=O)c1cc2ccccc2[nH]1)C(=O)N1C[C@H]2[C@@H]([C@H]1C(=O)N[C@H](C=O)C[C@@H]1CCNC1=O)C2(C)C [Compound G-1-a] | 0.16 | 0.09 | 0.00 | 0.28 | 8.02 | 36.1 | 13.3 | 1 | 0.92 | 4.60 | 0.33 | –
